Earlier results as cited in patent US20130331260A1, “Odour-Control Superabsorbent” (BASF SE, priority 2012, published 2013).

How the values were obtained:
[1] = tested on: seed germination in urea-based fertiliser
[2] = tested on: Helicobacter sp.

In the case of `NP(N)(=O)NC(=O)c1ccc(F)cc1` [fluorofamide, N-[Diaminophosphinyl]-4-fluorobenzamide], the “effect on seed germination compared with non-fluorinated analogue” value [1] is listed as “worked better than its non-fluorinated analogue in most cases” and the antibacterial properties [2] is listed as “no measurable antibacterial properties”.
